The structures appear in SMILES notation. Counter-ions that a name gives are not always drawn. Like-named read-outs stand apart in the source and are kept apart here. Where a SMILES comes first, the peptide text is derived from it.

Test [1] concerns the target T1, SARS-CoV-2 PLpro (nsp3 1564–1878) (Severe acute respiratory syndrome coronavirus 2, UniProt P0DTD1). Put plainly: biochemical. More on the design: FRET-quenched peptide (Pro3) cleavage by PLpro, 10 min pre-incubation, slope over 20 min, normalised to no-compound control. Conditions: read-out: % of control remaining.
For test [2], the target named is T1, SARS-CoV-2 PLpro (nsp3 1564–1878). Put plainly: biochemical. Set-up: FRET-quenched peptide (Pro3) cleavage by PLpro, 10 min pre-incubation, slope over 20 min, normalised to no-compound control. Conditions: read-out: % of control remaining. This is another data set of the same source.

As for `C[C@H]1CCCC(=O)CCC/C=C/c2cc(O)cc(O)c2C(=O)O1` [Zearalenone], the remaining activity at 1.25 µM in test [1] (Well no.=3148, low concentration screen) is 97.2%. Also, the remaining activity at 3.75 µM in test [2] (Well no.=3148, high concentration screen) stood at 97.8%.
Turning to `O=c1ncccn1[C@@H]1O[C@H](CO)[C@@H](O)[C@H]1O` [Zebularine], the remaining activity at 1.25 µM in test [1] (Well no.=7818, low concentration screen) worked out at 97%. For the same compound, the remaining activity at 3.75 µM in test [2] (Well no.=7818, high concentration screen) was found to be 96.3%.
In the case of `C/C1=C\CC(C)(C)/C=C/C(=O)/C(C)=C/CC1` [Zerumbone], the remaining activity at 1.25 µM in test [1] (Well no.=3549, low concentration screen) was 96.6%. Besides, the remaining activity at 3.75 µM in test [2] (Well no.=3549, high concentration screen) amounted to 98.6%.
Take `COc1nc(C)cnc1NS(=O)(=O)c1cccnc1-c1ccc(-c2nnco2)cc1` [Zibotentan]: the remaining activity at 1.25 µM in test [1] (Well no.=6318, low concentration screen) was 98.5%. For the same compound, in test [2] (Well no.=6318, high concentration screen), the remaining activity at 3.75 µM stood at 98.2%.
As for `CC(c1cc2ccccc2s1)N(O)C(N)=O` (stereo not drawn) [Zileuton], the remaining activity at 1.25 µM in test [1] (Well no.=1764, low concentration screen) was determined as 102%. The remaining activity at 3.75 µM in test [2] (Well no.=1764, high concentration screen) was 100%.
Turning to `CN(C)C/C=C(/c1ccc(Br)cc1)c1cccnc1` [Zimelidine dihydrochloride], the remaining activity at 1.25 µM in test [1] (Well no.=1534, low concentration screen) amounted to 96.1%. Besides, the remaining activity at 3.75 µM in test [2] (Well no.=1534, high concentration screen) worked out at 96%.
For `O=C1Cc2cc(CCN3CCN(c4nsc5ccccc45)CC3)c(Cl)cc2N1` [Ziprasidone (hydrochloride monohydrate)], the remaining activity at 1.25 µM in test [1] (Well no.=6563, low concentration screen) is 92.6%. Moreover, the remaining activity at 3.75 µM in test [2] (Well no.=6563, high concentration screen) was found to be 90.8%.
`O=C1Cc2cc(CCN3CCN(c4nsc5ccccc45)CC3)c(Cl)cc2N1` [Ziprasidone HCl]: the remaining activity at 1.25 µM in test [1] (Well no.=4859, low concentration screen) is 92.1%. For the same compound, the remaining activity at 3.75 µM in test [2] (Well no.=4859, high concentration screen) worked out at 93.7%.
Take `C[C@H](CSC(=O)c1ccccc1)C(=O)N1C[C@@H](Sc2ccccc2)C[C@H]1C(=O)O` [Zofenopril calcium]: in test [1] (Well no.=5564, low concentration screen), the remaining activity at 1.25 µM was 102%. Also, in test [2] (Well no.=5564, high concentration screen), the remaining activity at 3.75 µM turned out to be 103%.
In the case of `O=P(O)(O)C(O)(Cn1ccnc1)P(=O)(O)O` [Zoledronic acid], the remaining activity at 1.25 µM in test [1] (Well no.=1881, low concentration screen) is 100%; in test [1] (Well no.=5578, low concentration screen) it was 102%. Moreover, the remaining activity at 3.75 µM in test [2] (Well no.=1881, high concentration screen) amounted to 97.1%; in test [2] (Well no.=5578, high concentration screen), 98.1%.
Take `CN(C)CCc1c[nH]c2ccc(C[C@H]3COC(=O)N3)cc12` [Zolmitriptan]: the remaining activity at 1.25 µM in test [1] (Well no.=1885, low concentration screen) is 98%; in test [1] (Well no.=6507, low concentration screen), 98.3%. For the same compound, the remaining activity at 3.75 µM was found to be 97.6% in test [2] (Well no.=1885, high concentration screen) and 98.2% in test [2] (Well no.=6507, high concentration screen).
As for `NS(=O)(=O)Cc1noc2ccccc12` [Zonisamide sodium], in test [1] (Well no.=1390, low concentration screen), the remaining activity at 1.25 µM worked out at 98.4%. In addition, the remaining activity at 3.75 µM in test [2] (Well no.=1390, high concentration screen) turned out to be 100%.
For the compound `NS(=O)(=O)Cc1noc2ccccc12` [Zonisamide], the remaining activity at 1.25 µM in test [1] (Well no.=1879, low concentration screen) was determined as 94.7%. For the same compound, in test [2] (Well no.=1879, high concentration screen), the remaining activity at 3.75 µM was determined as 96.4%.
`O=C(O)Cc1nn(Cc2nc3cc(C(F)(F)F)ccc3s2)c(=O)c2ccccc12` [Zopolrestat]: the remaining activity at 1.25 µM in test [1] (Well no.=5825, low concentration screen) stood at 98.5%. Moreover, the remaining activity at 3.75 µM in test [2] (Well no.=5825, high concentration screen) is 98.9%.
For the compound `CO[C@H]1C[C@@H]2CC[C@@H](C)[C@@](O)(O2)C(=O)C(=O)N2CCCC[C@H]2C(=O)O[C@H]([C@H](C)C[C@@H]2CC[C@H](n3cnnn3)[C@H](OC)C2)CC(=O)[C@H](C)/C=C(\C)[C@@H](O)[C@@H](OC)C(=O)[C@H](C)C[C@H](C)/C=C/C=C/C=C/1C` [Zotarolimus], in test [1] (Well no.=8308, low concentration screen), the remaining activity at 1.25 µM is 90.2%. Also, the remaining activity at 3.75 µM in test [2] (Well no.=8308, high concentration screen) was 91.2%.
As to `CCCCC[C@H](O)CC(=O)CCc1ccc(O)c(OC)c1` [[6]-Gingerol], the remaining activity at 1.25 µM in test [1] (Well no.=6162, low concentration screen) stood at 96.6%. Besides, the remaining activity at 3.75 µM in test [2] (Well no.=6162, high concentration screen) worked out at 99.6%.
With `CC(C)C[C@H](NC(=O)[C@H](Cc1ccccc1)NC(=O)CNC(=O)[C@@H](C)NC(=O)[C@@H](N)Cc1ccc(O)cc1)C(=O)O` [[D-Ala2]leucine-enkephalin], in test [1], the remaining activity at 1.25 µM was 101%. Moreover, in test [2], the remaining activity at 3.75 µM was determined as 98.6%.
On to `CC[C@H](C)[C@H](NC(=O)[C@@H]1CCCN1C(=O)[C@H](Cc1cnc[nH]1)NC(=O)[C@@H](NC(=O)[C@H](Cc1ccc(O)cc1)NC(=O)[C@@H](NC(=O)[C@H](CCCN=C(N)N)NC(=O)CNC)C(C)C)[C@@H](C)CC)C(=O)O` [[Sar1, Ile8]-Angiotensin II (TFA)], for which, in test [1] (Well no.=7588, low concentration screen), the remaining activity at 1.25 µM amounted to 96%. For the same compound, the remaining activity at 3.75 µM in test [2] (Well no.=7588, high concentration screen) was 92%.
As for `C[C@H](N)C(=O)O` [_-Alanine], the remaining activity at 1.25 µM in test [1] (Well no.=7747, low concentration screen) is 103%. Besides, the remaining activity at 3.75 µM in test [2] (Well no.=7747, high concentration screen) amounted to 107%.
As to `C[C@H](NC(=O)[C@@H](N)CCC(=O)O)C(=O)O` [_-L-Glutamyl-L-alanine] (H-Glu-Ala-OH), the remaining activity at 1.25 µM in test [1] (Well no.=7750, low concentration screen) is 105%. For the same compound, in test [2] (Well no.=7750, high concentration screen), the remaining activity at 3.75 µM turned out to be 104%.
As for `CC1(C)CCC2=C(O1)c1ccccc1C(=O)C2=O` [_-Lapachone], the remaining activity at 1.25 µM in test [1] (Well no.=6166, low concentration screen) amounted to 104%. The remaining activity at 3.75 µM in test [2] (Well no.=6166, high concentration screen) came to 79.2%.
Turning to `NC(=O)c1ccc[n+]([C@@H]2O[C@H](COP(=O)([O-])O)[C@@H](O)[C@H]2O)c1` [_-Nicotinamide mononucleotide], the remaining activity at 1.25 µM in test [1] (Well no.=7735, low concentration screen) was determined as 102%. In addition, the remaining activity at 3.75 µM in test [2] (Well no.=7735, high concentration screen) stood at 105%.
For the compound `Nc1ncnc2c1ncn2[C@@H]1O[C@H](COP(=O)(O)CP(=O)(O)OP(=O)(O)O)[C@@H](O)[C@H]1O` [alpha,beta-Methylene adenosine 5'-triphosphate dilithium], the remaining activity at 1.25 µM in test [1] (Well no.=932, low concentration screen) stood at 101%. Besides, in test [2] (Well no.=932, high concentration screen), the remaining activity at 3.75 µM is 98.2%.
As for `NC(N)=N[C@@H](CCC(=O)O)C(=O)O` [alpha-Guanidinoglutaric acid], the remaining activity at 1.25 µM in test [1] (Well no.=669, low concentration screen) was 93.5%. Besides, in test [2] (Well no.=669, high concentration screen), the remaining activity at 3.75 µM turned out to be 96.1%.
Turning to `CN1[C@@H](CC(=O)c2ccccc2)CCC[C@H]1C[C@H](O)c1ccccc1` [alpha-Lobeline hydrochloride], in test [1] (Well no.=1025, low concentration screen), the remaining activity at 1.25 µM was found to be 98.8%. Moreover, in test [2] (Well no.=1025, high concentration screen), the remaining activity at 3.75 µM was 102%.
In the case of `CC(N)Cc1c[nH]c2ccc(O)cc12` (stereo not drawn) [alpha-Methyl-5-hydroxytryptamine maleate], in test [1] (Well no.=895, low concentration screen), the remaining activity at 1.25 µM came out at 106%. For the same compound, the remaining activity at 3.75 µM in test [2] (Well no.=895, high concentration screen) is 106%.
`Nc1cc(-c2ccncc2)c[nH]c1=O` [amrinone]: the remaining activity at 1.25 µM in test [1] (Well no.=2146, low concentration screen) was 102%. For the same compound, the remaining activity at 3.75 µM in test [2] (Well no.=2146, high concentration screen) was 100%.
`O=C(OCOC(=O)[C@H]1CCCN1C(=O)CCCCC(=O)N1CCC[C@@H]1C(=O)OCOC(=O)OC1CCOCC1)OC1CCOCC1` [amyloid P-IN-1]: the remaining activity at 1.25 µM in test [1] (Well no.=7788, low concentration screen) is 103%. In test [2] (Well no.=7788, high concentration screen), the remaining activity at 3.75 µM worked out at 105%.
Turning to `N[C@@H](CCl)C(=O)O` [beta-Chloro-L-alanine hydrochloride], the remaining activity at 1.25 µM in test [1] (Well no.=142, low concentration screen) came out at 103%. Also, the remaining activity at 3.75 µM in test [2] (Well no.=142, high concentration screen) was found to be 105%.
On to `C[C@]12CC[C@@H]3c4ccc(O)cc4CC[C@H]3[C@@H]1CC[C@@H]2O` [beta-Estradiol], for which the remaining activity at 1.25 µM in test [1] (Well no.=511, low concentration screen) amounted to 107%. In test [2] (Well no.=511, high concentration screen), the remaining activity at 3.75 µM was 104%.
Regarding `O=C(/C=C/c1ccc(O)cc1)CC(=O)/C=C/c1ccc(O)cc1` [bis-demethoxycurcumin], the remaining activity at 1.25 µM in test [1] (Well no.=4089, low concentration screen) came to 98.7%. For the same compound, the remaining activity at 3.75 µM in test [2] (Well no.=4089, high concentration screen) is 101%.

The values above are taken from PMC8286840, “Identifying SARS-CoV-2 antiviral compounds by screening for small molecule inhibitors of Nsp3 papain-like protease” (Biochemical Journal, 2021).
